Legend:
[1] = target: T1, DHS2^WT (Arabidopsis thaliana, UniProt Q00218); test: Differential scanning fluorimetry (DSF) protein-ligand affinity analysis, DHS2^WT; format: binding; conditions: ligand at 1 mM
T1 construct: without the predicted plastid transit peptide (amino acid residues; 49-525, 34-507, and 52-527, respectively); made in house; host or cells: E. coli Rosetta-2
Experimental: (§1) To examine the impact of the sota mutations on the interaction between DHS and AAA effectors (FIG. 22), a differential scanning fluorimetry (DSF) analysis (48) was conducted using the recombinant DHS2^WT and DHS2^A4 proteins. […] The fluorescence signal was monitored during the stepwise increase in temperature (1° C. per minute from 25° C. to 95° C.). The Tm was calculated by nonlinear regression analysis using the Boltzmann sigmoidal equation (48).

[2] = target: T2, Arabidopsis thaliana DHS2 (SEQ ID NO:2) variant DHS2^A4 (sotaA4), G222S (Arabidopsis thaliana, UniProt Q00218, G222S); test: Differential scanning fluorimetry protein-ligand affinity analysis, DHS2 sotaA4; format: binding; conditions: ligand at 1 mM
T2 construct: without the predicted plastid transit peptide (amino acid residues; 49-525, 34-507, and 52-527, respectively); made in house; host or cells: E. coli
T2 sequence (Q00218 34-507 G222S): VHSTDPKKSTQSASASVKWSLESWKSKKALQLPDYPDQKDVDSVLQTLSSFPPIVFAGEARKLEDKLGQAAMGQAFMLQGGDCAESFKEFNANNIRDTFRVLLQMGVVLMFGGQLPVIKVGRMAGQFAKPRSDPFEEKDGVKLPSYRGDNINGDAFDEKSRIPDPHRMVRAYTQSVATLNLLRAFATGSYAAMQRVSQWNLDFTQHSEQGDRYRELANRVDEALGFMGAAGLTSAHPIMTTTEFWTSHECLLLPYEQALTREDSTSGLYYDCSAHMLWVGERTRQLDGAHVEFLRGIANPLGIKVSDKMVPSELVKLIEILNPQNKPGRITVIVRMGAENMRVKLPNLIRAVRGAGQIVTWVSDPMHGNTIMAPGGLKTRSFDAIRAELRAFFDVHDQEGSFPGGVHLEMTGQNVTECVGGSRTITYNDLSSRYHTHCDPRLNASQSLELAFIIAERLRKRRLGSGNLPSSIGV
Experimental: (A) Simplified pathway map of AAAs and AAA-derived metabolites used in the effector screening. […] Data are means±SEM (n=3 independent assays).
as §1

[3] = target: T3, DHS1^WT (Arabidopsis thaliana, UniProt P29976); conditions: AAAs, chorismate, caffeate: from Yokoyama et al., Plant Cell, 2021; cited from earlier work
T3 construct: without the predicted plastid transit peptide (amino acid residues; 49-525, 34-507, and 52-527, respectively); made in house; host or cells: E. coli Rosetta-2
T3 sequence (P29976 49-525): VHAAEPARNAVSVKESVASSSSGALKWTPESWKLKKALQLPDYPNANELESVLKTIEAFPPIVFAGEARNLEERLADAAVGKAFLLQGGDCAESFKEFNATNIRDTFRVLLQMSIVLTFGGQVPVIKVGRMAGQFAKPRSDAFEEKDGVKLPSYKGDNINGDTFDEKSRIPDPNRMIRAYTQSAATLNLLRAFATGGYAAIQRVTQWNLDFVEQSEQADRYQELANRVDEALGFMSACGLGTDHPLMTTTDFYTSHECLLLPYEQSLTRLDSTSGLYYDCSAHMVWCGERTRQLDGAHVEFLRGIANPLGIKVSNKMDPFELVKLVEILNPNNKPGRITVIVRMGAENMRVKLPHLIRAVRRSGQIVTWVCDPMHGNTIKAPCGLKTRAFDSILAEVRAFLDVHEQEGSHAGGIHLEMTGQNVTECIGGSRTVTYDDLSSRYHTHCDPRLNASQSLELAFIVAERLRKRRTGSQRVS

[4] = target: T1, DHS2^WT; test: DHS enzyme assay, recombinant DHS2^WT; format: biochemical; conditions: recombinant enzyme; read-out: IC50 of effector molecule on DHS2^WT
Experimental: To generate recombinant DHS proteins the pET28a vectors carrying the A. thaliana DHS1 (AtDHS1), AtDHS2, or AtDHS3 WT sequence without the predicted plastid transit peptide (amino acid residues; 49-525, 34-507, and 52-527, respectively) were expressed in E. coli Rosetta-2 cells and purified using Ni-affinity chromatography, exactly as was conducted previously (9). To generate DHS proteins with individual sota mutations via site-directed mutagenesis, these pET28a plasmid templates were diluted by 500-fold, mixed with 0.04 U/μL Phusion DNA polymerase (Thermo Scientific), 0.2 mM deoxynucleoside triphosphates (dNTPs), 1× Phusion reaction buffer (Thermo Scientific), and 0.5 μM forward and reverse mutagenesis primers (Table 10). The PCR reaction was run using the following protocol: 98° C. for 30 s followed by 20 cycles of 10 s at 98° C., 20 s at 70° C., 4.5 min at 72° C. with a final extension at 72° C. for 10 min. The PCR products were purified using a QIAquick Gel Extraction Kit (QIAGEN), treated with FastDigest DpnI (Thermo Scientific) to digest methylated plasmid template DNA for 20 min at 37° C., and transformed into E. coli cells. The mutagenized pET28a plasmids were sequenced to confirm that no errors were introduced during the mutagenesis process.
The DHS enzyme assays were conducted using the colorimetric method that we recently described (9). Briefly, the enzyme solution (7.7 μl) containing 50 mM Hepes (pH 7.4) was preincubated with an effector molecule(s) at room temperature for 15 min. For assays using recombinant protein and enzyme fractions isolated from plant leaves, 0.01 to 0.1 μg and approximately 50 μg of proteins were used, respectively. After adding 0.5 μl of 0.1 M dithiothreitol, the samples were further incubated at room temperature for 15 min. During these incubations, the substrate solution containing 50 mM Hepes (pH 7.4), 2 mM MnCl2, 4 mM E4P, and 4 mM PEP at final concentration was preheated at 37° C. The enzyme reaction was started by adding 6.8 μl of the substrate solution, then incubated at 37° C. for 30 min, and terminated by adding 30 μl of 0.6 M trichloroacetic acid. After a brief centrifugation, 5 μl of 200 mM NaIO4 (sodium meta-periodate) in 9 N H3PO4 was added to oxidize the enzymatic product and to incubate at 25° C. for 20 min. To stop the oxidation reaction, 20 μl of 0.75 M NaAsO2 (sodium arsenite), which was dissolved in 0.5 M Na2SO4 and 0.05 M H2SO4, was added and immediately mixed. After 5 min of incubation at room temperature, one-third of the sample solution was transferred to a new tube to be mixed with 50 μl of 40 mM thiobarbituric acid and incubated at 99° C. for 15 min in a thermal cycler. The mixture was added to 600 μl of cyclohexanone in eight-strip solvent-resistant plastic tubes, mixed vigorously, and centrifuged at 4500 g for 3 min to separate water- and cyclohexanone-based layers for the extraction off the developed pink chromophore. The absorbance of the pink supernatant was read at 549 nm with the microplate reader (Infinite 200 PRO, TECAN) to calculate DAHP production with the molar extinction coefficient at 549 nm (ε=549 nm) of 4.5×10^4 M^−1 cm^−1. Reaction mixtures with boiled enzymes were run in parallel and used as negative controls to estimate the background signal.

T1 sequence (Q00218 34-507): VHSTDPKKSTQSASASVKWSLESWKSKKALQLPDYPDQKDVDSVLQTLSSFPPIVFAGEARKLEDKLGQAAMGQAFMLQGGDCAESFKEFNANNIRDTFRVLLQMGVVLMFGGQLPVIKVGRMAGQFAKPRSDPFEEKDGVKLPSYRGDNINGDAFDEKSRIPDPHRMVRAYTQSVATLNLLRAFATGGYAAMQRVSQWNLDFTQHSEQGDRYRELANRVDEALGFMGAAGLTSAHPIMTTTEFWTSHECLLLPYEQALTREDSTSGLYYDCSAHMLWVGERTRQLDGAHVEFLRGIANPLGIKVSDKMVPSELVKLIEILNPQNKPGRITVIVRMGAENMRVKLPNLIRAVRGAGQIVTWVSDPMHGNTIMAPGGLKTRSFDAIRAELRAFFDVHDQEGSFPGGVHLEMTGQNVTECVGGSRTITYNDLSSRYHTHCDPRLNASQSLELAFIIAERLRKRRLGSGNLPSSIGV

Compound: N[C@@H](Cc1c[nH]c2ccccc12)C(=O)O [Trp, tryptophan]
- effect on melting temperature (Tm) of DHS2^WT [1]: significantly increased the Tm
- binding (DSF) [2]: still binds Tyr and Trp
- IC50 of effector molecule on DHS1^WT [3]: Not inhibited

Compound: O=C(O)Cc1cc(O)ccc1O [HGA, homogentisate]
- IC50 [4]: 73.9 µM

— patent publication US20250043299A1, “POINT MUTATIONS THAT BOOST AROMATIC AMINO ACID PRODUCTION AND CO2 ASSIMILATION IN PLANTS” (Wisconsin Alumni Research Foundation, priority 2021, published 2025)
